Measurements: ChEMBL document CHEMBL3632614, “Small molecules that promote regenerative repair for pancreatic and cardiovascular health” (2015)

How the values were obtained:
[1] = Induction of rat beta cell proliferation after 3 days relative to control; assay type: functional, Pancreatic beta cell
Rattus norvegicus = species: Rattus norvegicus; test: Increase in rat beta cell mass in rat T1DM model after 45 days; assay type: functional
[2] = Induction of rat beta cell proliferation assessed as increase in PDX1 expressing cells relative to control; assay type: functional, Pancreatic beta cell

With `CN1CCN(Cc2ccc(NC(=O)Cc3ccc(Oc4cc(NC(=O)C5CC5)ncn4)cc3)cc2C(F)(F)F)CC1` the Activity [1] was “<=4%” and the Activity (Rattus norvegicus) was 50%.
For `Nc1ncnc2nc(-c3ccc(N4CCOCC4)nc3)cc(-c3cccc(Br)c3)c12`, the “fold change (FC)” value [2] was 2.
With `COC(=O)C1=C(C)NC(C)=C([N+](=O)[O-])C1c1ccccc1C(F)(F)F` (centres undefined) the “fold change (FC)” value [1] was 2.5.
